Experimental data: ChEMBL document CHEMBL4823315 (Bioorg Med Chem Lett, 2021)

What was measured:
[1] = Thermodynamic solubility of the compound at pH 7.4; type: physicochemical; settings: buffer, read-out: Therm_solubility
[2] = Protein binding in human plasma assessed as unbound fraction; type: ADME, cell-free
[3] = Cmax in CD-1 mouse at 0.2 mg/kg, iv; type: ADME, organism-based; parameters: route intravenous, dose 0.2 mg/kg; settings: in vivo
[4] = Efflux ratio of apparent permeability in human Caco-2 cells; type: ADME, cell-based
[5] = biological target: Cytochrome P450 3A4 (Homo sapiens, UniProt P08684); test: Inhibition of CYP3A4 (unknown origin); type: ADME
Chain of Cytochrome P450 3A4 (P08684 whole entry): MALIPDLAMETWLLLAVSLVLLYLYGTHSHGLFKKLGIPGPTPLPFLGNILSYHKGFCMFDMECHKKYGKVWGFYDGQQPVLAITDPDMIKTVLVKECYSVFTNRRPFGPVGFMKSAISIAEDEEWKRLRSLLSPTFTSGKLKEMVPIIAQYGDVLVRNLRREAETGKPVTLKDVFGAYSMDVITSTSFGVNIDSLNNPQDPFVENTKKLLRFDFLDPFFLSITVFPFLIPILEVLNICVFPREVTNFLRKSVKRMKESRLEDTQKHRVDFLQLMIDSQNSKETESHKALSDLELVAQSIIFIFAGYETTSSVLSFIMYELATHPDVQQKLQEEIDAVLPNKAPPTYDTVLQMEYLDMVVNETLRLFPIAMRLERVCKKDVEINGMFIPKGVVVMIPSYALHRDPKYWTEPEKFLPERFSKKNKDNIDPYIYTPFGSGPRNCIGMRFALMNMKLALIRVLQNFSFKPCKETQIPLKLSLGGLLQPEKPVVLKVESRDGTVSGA

[6] = biological target: T1, Cytochrome P450 2C8 (Homo sapiens, UniProt P10632); test: Inhibition of CYP2C8 (unknown origin); type: ADME
T1 sequence (P10632 whole entry): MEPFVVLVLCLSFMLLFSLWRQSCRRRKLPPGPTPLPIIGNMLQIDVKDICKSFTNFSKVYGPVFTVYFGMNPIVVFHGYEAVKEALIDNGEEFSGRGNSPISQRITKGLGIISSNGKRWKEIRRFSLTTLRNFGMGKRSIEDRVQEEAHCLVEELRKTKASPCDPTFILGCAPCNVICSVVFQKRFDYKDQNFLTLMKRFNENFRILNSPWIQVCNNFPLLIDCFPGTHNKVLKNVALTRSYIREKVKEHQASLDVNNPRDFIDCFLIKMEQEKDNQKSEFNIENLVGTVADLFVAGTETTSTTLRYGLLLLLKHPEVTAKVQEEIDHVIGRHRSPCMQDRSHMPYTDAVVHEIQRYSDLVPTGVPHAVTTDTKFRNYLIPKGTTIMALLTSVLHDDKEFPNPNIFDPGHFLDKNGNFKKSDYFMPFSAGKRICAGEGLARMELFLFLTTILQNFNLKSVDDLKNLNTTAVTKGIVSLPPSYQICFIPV

[7] = biological target: Voltage-gated inwardly rectifying potassium channel KCNH2 (Homo sapiens, UniProt Q12809); test: Inhibition of human ERG by patch clamp assay
Chain of Voltage-gated inwardly rectifying potassium channel KCNH2 (Q12809 whole entry): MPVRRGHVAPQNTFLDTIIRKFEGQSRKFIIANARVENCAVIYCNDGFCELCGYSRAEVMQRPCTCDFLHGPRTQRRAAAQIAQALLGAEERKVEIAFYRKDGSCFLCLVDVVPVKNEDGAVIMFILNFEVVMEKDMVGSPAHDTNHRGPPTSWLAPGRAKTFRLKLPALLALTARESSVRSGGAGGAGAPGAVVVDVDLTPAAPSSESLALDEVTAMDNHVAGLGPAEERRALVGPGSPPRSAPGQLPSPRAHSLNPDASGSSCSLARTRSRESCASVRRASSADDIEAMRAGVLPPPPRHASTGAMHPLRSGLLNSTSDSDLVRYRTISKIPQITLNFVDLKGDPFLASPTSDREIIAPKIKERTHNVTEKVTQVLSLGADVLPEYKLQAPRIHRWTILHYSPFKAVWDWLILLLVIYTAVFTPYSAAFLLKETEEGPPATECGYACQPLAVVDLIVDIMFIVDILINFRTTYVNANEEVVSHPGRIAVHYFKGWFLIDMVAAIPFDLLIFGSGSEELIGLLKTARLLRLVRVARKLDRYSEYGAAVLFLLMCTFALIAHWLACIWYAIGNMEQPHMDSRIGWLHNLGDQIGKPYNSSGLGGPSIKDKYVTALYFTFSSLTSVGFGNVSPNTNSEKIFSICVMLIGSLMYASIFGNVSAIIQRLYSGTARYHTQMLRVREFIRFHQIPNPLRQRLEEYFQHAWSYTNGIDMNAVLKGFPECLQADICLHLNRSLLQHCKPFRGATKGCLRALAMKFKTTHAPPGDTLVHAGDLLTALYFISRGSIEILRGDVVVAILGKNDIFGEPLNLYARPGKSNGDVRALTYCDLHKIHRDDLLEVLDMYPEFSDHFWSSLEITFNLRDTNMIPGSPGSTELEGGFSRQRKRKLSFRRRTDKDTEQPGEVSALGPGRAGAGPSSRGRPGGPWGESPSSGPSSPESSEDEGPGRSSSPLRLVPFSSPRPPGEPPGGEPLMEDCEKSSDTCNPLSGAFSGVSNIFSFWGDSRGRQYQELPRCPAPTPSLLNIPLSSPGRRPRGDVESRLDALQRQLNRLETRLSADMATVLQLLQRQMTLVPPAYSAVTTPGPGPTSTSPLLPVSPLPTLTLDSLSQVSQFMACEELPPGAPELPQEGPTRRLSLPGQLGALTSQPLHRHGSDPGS

[8] = biological target: Serine/threonine-protein kinase AKT (Homo sapiens, UniProt P31751+Q9Y243+P31749); test: Inhibition of Akt (unknown origin); type: protein assay
[9] = Oral bioavailability in CD-1 mouse at 0.5 mg/kg; type: ADME, organism-based; settings: in vivo
[10] = Apparent permeability across apical to basal side in human Caco-2 cells; type: ADME, cell-based
[11] = Inhibition of p70S6K (unknown origin); parameters: species or system Homo sapiens
[12] = biological target: Cytochrome P450 2D6 (Homo sapiens, UniProt P10635); test: Inhibition of CYP2D6 (unknown origin); type: ADME
Chain of Cytochrome P450 2D6 (P10635 whole entry): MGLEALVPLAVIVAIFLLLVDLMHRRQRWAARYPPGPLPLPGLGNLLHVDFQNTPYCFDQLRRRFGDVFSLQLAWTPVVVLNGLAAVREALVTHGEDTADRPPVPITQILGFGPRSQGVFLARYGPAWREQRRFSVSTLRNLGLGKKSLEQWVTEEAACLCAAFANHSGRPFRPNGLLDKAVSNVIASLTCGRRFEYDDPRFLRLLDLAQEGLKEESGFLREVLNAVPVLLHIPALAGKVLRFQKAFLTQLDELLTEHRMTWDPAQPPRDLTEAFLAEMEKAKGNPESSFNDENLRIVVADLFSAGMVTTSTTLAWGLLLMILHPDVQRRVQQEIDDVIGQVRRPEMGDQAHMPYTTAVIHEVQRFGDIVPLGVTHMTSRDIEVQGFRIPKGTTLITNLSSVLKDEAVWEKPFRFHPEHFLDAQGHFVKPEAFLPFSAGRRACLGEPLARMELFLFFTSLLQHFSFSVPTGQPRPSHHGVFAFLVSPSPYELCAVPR

[13] = Protein binding in mouse plasma assessed as unbound fraction; type: ADME, cell-free
[14] = biological target: Cytochrome P450 2C9 (Homo sapiens, UniProt P11712); test: Inhibition of CYP2C9 (unknown origin); type: ADME
Chain of Cytochrome P450 2C9 (P11712 whole entry): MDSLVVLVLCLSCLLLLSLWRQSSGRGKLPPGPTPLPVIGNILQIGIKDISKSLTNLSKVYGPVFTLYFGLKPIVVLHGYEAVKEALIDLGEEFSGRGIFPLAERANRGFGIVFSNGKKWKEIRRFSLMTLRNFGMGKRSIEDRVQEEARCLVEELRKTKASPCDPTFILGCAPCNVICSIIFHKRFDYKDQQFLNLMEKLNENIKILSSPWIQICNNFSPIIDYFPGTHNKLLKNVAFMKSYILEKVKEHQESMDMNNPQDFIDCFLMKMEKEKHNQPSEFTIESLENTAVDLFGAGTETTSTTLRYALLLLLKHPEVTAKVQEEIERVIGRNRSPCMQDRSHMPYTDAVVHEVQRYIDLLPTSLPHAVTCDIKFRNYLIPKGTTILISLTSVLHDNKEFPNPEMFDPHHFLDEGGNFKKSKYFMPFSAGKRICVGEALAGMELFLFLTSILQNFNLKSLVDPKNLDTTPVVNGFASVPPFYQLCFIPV

[15] = biological target: T2, Cytochrome P450 1A2 (Homo sapiens, UniProt P05177); test: Inhibition of CYP1A2 (unknown origin); type: ADME
T2 sequence (P05177 whole entry): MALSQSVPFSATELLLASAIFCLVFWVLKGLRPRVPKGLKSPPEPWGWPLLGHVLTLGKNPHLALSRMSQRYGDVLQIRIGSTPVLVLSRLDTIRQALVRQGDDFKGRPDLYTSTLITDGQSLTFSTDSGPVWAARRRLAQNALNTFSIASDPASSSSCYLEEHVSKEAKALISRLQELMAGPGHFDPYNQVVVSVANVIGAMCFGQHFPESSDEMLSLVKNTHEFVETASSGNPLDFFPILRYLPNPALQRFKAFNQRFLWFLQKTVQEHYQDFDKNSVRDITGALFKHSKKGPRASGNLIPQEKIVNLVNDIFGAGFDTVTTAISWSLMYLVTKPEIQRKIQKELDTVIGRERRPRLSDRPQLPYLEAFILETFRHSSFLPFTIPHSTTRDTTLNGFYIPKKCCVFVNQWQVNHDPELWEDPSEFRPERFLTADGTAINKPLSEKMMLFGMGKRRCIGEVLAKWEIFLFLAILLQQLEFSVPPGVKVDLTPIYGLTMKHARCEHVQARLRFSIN

[16] = Intrinsic clearance in mouse liver microsomes; type: ADME, Microsome; settings: read-out: CLH
[17] = Volume of distribution in CD-1 mouse at 0.5 mg/kg, po or 0.2 […], iv; type: ADME, organism-based; settings: in vivo
[18] = biological target: T3, Cytochrome P450 2B6 (Homo sapiens, UniProt P20813); test: Inhibition of CYP2B6 (unknown origin); type: ADME
T3 sequence (P20813 whole entry): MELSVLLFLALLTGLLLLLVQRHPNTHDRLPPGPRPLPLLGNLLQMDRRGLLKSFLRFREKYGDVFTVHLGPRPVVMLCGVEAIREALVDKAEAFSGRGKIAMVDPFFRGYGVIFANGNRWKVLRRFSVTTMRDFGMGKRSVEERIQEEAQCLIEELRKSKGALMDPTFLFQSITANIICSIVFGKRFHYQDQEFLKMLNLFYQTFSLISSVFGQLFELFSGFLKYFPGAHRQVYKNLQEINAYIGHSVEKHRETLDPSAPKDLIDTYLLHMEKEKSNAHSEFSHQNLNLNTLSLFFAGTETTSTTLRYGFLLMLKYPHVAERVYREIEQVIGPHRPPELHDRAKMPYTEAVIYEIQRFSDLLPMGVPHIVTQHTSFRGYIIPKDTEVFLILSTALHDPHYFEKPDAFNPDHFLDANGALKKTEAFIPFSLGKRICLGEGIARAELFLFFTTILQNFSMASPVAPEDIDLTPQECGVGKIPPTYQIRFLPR

[19] = Inhibition of Akt/p70S6K in human MDA-MB-436 cells assessed as inhibition of S6 phosphorylation; type: cell-based
[20] = Half life in CD-1 mouse at 0.5 mg/kg, po or 0.2 mg/kg, iv; type: ADME, organism-based; settings: in vivo
[21] = AUC in CD-1 mouse at 0.2 mg/kg, iv; type: ADME, organism-based; parameters: dose 0.2 mg/kg; settings: in vivo
[22] = Thermodynamic solubility of the compound at pH 1.2; type: physicochemical; settings: buffer, read-out: Therm_solubility
[23] = Intrinsic clearance in human liver microsomes; type: ADME, Microsome; settings: read-out: CLH
[24] = Clearance in CD-1 mouse at 0.5 mg/kg, po or 0.2 mg/kg, iv; type: ADME, organism-based; settings: in vivo
[25] = AUC in CD-1 mouse at 0.5 mg/kg, po; type: ADME, organism-based; parameters: dose 0.5 mg/kg; settings: in vivo
[26] = Cmax in CD-1 mouse at 0.5 mg/kg, po; type: ADME, organism-based; parameters: route oral, dose 0.5 mg/kg; settings: in vivo
[27] = biological target: Cytochrome P450 2C19 (Homo sapiens, UniProt P33261); test: Inhibition of CYP2C19 (unknown origin); type: ADME
Chain of Cytochrome P450 2C19 (P33261 whole entry): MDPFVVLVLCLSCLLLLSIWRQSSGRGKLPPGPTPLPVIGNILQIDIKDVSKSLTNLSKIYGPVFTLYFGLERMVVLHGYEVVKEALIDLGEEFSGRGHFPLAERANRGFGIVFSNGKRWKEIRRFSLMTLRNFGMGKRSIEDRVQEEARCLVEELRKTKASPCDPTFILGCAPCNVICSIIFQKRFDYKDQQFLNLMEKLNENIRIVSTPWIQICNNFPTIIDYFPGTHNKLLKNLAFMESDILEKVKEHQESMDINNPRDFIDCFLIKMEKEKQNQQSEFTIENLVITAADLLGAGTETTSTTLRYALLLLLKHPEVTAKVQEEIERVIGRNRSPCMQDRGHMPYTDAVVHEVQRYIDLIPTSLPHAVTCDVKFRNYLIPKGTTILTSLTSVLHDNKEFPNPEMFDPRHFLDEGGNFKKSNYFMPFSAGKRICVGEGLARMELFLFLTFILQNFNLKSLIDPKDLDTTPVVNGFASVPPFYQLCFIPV

For `Cn1cc(-c2ccc(F)c(C(F)(F)F)c2)nc1C1CCN(c2ncnc(N)c2-c2ccc(F)cc2)CC1`, the solubility thermodynamic [1] was less than 1 µg/mL, the fraction unbound [2] was 0.0008 and the Cmax [3] was 597 ng/mL. It also gave an efflux ratio [4] of 1.3, an IC50 [5] greater than 20 µM and an IC50 [6] greater than 20 µM. For the same molecule, the IC50 [7] was 1.8 µM, the IC50 [8] was 2.2 µM and the F [9] was 41%. The Papp A→B [10] was 1.9 ×10⁻⁶ cm/s, the IC50 [11] was 0.004 µM and the IC50 [12] was greater than 20 µM. It also gave a fraction unbound [13] of 0.0003, an IC50 [14] greater than 20 µM and an IC50 [15] greater than 20 µM. For the same molecule, the microsomal CLint [16] was 48 µL/min/mg, the Vd [17] was 2.16 L/kg and the IC50 [18] was 6.5 µM. The IC50 [19] was 0.04 µM, the half-life [20] was 4.68 h and the AUC [21] was 1350 ng·h/mL. The solubility thermodynamic [22] was less than 1 µg/mL, the microsomal CLint [23] was 23 µL/min/mg and the CL [24] was 12.3 mL/min/kg. The AUC [25] was 557 ng·h/mL, the Cmax [26] was 72.1 ng/mL and the IC50 [27] was greater than 20 µM.
